pIC50: −log10 of the molar value. Like-named read-outs stand apart in the source and are kept apart here. Some results are limits rather than exact numbers.

These results are taken from article PMC9006239, “Synthesis of potent and selective HDAC6 inhibitors led to unexpected opening of a quinazoline ring” (RSC Advances, 2022).

The test system of series [1] is HDAC6. The note with it: cited from earlier work.
The target of series [2] is T1, human HDAC6 (Homo sapiens, UniProt Q9UBN7).
T1 construct: purchased Reaction Biology Corp. (contract assay)
T1 sequence (Q9UBN7 1-1215): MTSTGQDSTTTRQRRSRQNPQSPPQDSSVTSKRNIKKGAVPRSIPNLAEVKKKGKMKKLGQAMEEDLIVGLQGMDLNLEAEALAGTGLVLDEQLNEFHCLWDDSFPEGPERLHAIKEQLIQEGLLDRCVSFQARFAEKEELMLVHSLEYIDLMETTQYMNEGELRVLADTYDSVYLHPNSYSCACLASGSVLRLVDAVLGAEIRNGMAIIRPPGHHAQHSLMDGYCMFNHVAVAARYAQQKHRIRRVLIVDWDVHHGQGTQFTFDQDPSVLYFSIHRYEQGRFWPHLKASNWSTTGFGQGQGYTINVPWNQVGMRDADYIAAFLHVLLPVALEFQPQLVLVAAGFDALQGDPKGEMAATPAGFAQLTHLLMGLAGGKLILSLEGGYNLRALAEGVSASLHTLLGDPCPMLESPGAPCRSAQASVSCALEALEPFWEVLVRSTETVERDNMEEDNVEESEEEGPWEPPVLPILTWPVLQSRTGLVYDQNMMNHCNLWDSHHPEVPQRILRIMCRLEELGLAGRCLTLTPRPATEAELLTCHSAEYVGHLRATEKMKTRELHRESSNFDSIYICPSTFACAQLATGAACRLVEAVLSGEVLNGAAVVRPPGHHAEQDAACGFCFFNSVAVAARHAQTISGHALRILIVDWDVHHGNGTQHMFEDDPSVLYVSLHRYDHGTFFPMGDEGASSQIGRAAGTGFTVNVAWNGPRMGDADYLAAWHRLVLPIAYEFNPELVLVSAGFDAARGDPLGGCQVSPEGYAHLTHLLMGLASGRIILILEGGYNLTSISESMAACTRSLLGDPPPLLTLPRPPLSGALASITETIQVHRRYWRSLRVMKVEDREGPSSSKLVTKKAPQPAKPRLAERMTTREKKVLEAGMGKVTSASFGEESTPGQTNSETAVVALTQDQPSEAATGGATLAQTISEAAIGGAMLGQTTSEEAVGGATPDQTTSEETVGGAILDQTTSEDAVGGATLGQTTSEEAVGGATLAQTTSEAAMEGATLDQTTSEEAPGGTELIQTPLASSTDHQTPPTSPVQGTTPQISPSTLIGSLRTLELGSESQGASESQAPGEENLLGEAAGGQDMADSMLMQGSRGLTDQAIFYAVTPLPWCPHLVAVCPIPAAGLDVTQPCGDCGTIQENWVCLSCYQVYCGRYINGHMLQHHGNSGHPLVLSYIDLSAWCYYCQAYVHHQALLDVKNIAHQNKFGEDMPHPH
As to the kind of experiment: In vitro inhibitory activity on purified recombinant HDAC6 (fluorogenic peptide assay, Reaction Biology Corp.). The note with it: for selectivity for HDAC6 with respect to HDAC1: HDAC6 vs HDAC1, from the IC50 values of Table 2; for selectivity for HDAC6 with respect to HDAC8: HDAC6 vs HDAC8, from the IC50 values of Table 2; for IC50: purified recombinant enzyme, RHKK-Ac-AMC substrate, singlet 10-dose, 3-fold serial dilution. Format: biochemical. As to the method: Figure S1. […] All compounds were tested in singlet
IC50 values were calculated
Figure S2. […] All compounds were tested in singlet
Figure S3. […] All compounds were tested in singlet

Series [3] addresses human HDAC1 (Homo sapiens, UniProt Q13547). As to the kind of experiment: In vitro inhibitory activity on purified recombinant HDAC1 (fluorogenic peptide assay, Reaction Biology Corp.).
Procedure: (§1) In vitro tests on HDAC6, HDAC1 and HDAC8 were performed at Reaction Biology Corp. with modalities described below. […] The compounds were dissolved in DMSO and tested with 3-fold serial dilution starting from 100 μM. The enzymatic assays were performed by adding HDAC6 and the ligand solutions in the reaction buffer described above. […] IC50 values were calculated by using the GraphPad Prism 4 program based on a sigmoidal dose–response equation. The blank (DMSO) value concentration was entered as 1.00 × 10^−12 M for curve fitting.
(§2) using the GraphPad Prism4 program based on a sigmoidal dose-response equation.
The target of series [4] is T2, human HDAC8 (Homo sapiens, UniProt Q9BY41).
T2 sequence (Q9BY41 1-377): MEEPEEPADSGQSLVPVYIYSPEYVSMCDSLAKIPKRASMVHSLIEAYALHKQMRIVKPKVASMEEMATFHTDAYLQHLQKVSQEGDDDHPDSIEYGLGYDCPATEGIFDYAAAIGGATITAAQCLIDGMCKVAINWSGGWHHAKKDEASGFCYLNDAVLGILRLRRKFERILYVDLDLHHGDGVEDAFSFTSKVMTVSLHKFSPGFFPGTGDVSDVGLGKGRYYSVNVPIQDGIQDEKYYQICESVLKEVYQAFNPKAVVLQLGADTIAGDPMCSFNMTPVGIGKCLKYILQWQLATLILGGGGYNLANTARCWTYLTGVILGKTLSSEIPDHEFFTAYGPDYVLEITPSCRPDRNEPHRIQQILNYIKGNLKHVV
As to the kind of experiment: In vitro inhibitory activity on purified recombinant HDAC8 (fluorogenic peptide assay, Reaction Biology Corp.).
Procedure: as §1, §2

[5] abbreviates: known quinazoline-capped inhibitors, Fig. 1.

Sequence of human HDAC1 (Q13547 whole entry): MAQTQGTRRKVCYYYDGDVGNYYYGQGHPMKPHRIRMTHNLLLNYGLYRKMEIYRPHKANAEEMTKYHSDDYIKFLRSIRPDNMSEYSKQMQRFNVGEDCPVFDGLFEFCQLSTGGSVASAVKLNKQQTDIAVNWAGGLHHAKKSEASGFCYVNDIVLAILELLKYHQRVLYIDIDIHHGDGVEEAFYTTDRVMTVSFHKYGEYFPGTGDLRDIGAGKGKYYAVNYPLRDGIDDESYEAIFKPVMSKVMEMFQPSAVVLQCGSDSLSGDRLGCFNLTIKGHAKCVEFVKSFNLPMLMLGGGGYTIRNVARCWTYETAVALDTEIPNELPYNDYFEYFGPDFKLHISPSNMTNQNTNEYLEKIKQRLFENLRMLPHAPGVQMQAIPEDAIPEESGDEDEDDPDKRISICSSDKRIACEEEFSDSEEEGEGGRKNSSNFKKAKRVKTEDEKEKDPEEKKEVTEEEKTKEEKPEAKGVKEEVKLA

For the compound `COc1ccc(N(C)c2nc(C)nc3ccccc23)cc1NC(=O)CCC(=O)NO` [Compound 2], in series [1] (setting [5]), the negative logarithm of the IC50 (pIC50) (commonly −log10 of the IC50, conventionally taken in molar units) was 7.80.

As to `COc1ccc(N(C)c2nc(C)nc3ccccc23)cc1OCCCC(=O)NO` [Compound 1], the pIC50 in series [1] (setting [5]) is 7.77.

As for `COc1cc2nc(NCCCCCCC(=O)NO)nc(NC3CCN(C(C)C)CC3)c2cc1OC` [Compound 5], the pIC50 in series [1] (most active quinazoline inhibitor reported so far) is 7.92.

Consider `Nc1nc2c3ccc(Cc4ccc(C(=O)NO)cc4)cc3nc(Cc3ccc4c(c3)OCO4)n2n1` [Compound 11a, 4-((2-Amino-5-(benzo[d][1,3]dioxol-5-ylmethyl)-[1,2,4]triazolo[1,5-c]quinazolin-8-yl)methyl)-N-hydroxybenzamide], for which the melting point (commonly the temperature, or range, at which the solid turns liquid) was < 267 °C (dec.). Also, in series [2], the “selectivity for HDAC6 with respect to HDAC1” value is reported as “more than 12 000 fold”, the “selectivity for HDAC6 with respect to HDAC8” value is listed as over 1000 fold and the half-maximal inhibitory concentration (IC50) (commonly the concentration at which inhibition is half-maximal) is 0.5 nM. In addition, the negative logarithm of the IC50 (pIC50) in series [3] was 5.22. In series [4], the pIC50 is 6.19.

On to `Nc1n[nH]c(-c2cc(Cc3ccc(C(=O)NO)cc3)ccc2NC(=O)Cc2ccc3c(c2)OCO3)n1` [Compound 18, 4-(3-(3-Amino-1H-1,2,4-triazol-5-yl)-4-(2-(benzo[d][1,3]dioxol-5-yl)acetamido)benzyl)-N-hydroxybenzamide], for which the melting point is < 264 °C (dec.). In addition, in series [2], the “selectivity for HDAC6 with respect to HDAC1” value is recorded as > 18 000 fold, the “selectivity for HDAC6 with respect to HDAC8” value is listed as > 15 000 fold and the IC50 was 0.1 nM. Further, the pIC50 in series [3] was 5.74. The negative logarithm of the IC50 (pIC50) in series [4] is 5.81.

Turning to `COc1ccc(N(C)c2nc(C)nc3ccccc23)cc1NC(=O)CCCC(=O)NO` [Compound 3], the pIC50 in series [1] (setting [5]) was 7.46.
